{"source": "patent US12065468B2", "about": "“Heme-binding small peptide” (priority 2021, dated 2024)", "key": {"Sinorhizobium meliloti [1]": {"tested_on": "Sinorhizobium meliloti", "test": "S. meliloti cell death in 24 hours (plating)", "format": "cell-based"}, "Porphyromonas gingivalis": {"tested_on": "Porphyromonas gingivalis", "test": "Cell viability assay for P. gingivalis", "format": "cell-based", "conditions": "48 hours, anaerobic, Brucella Broth", "description": "Cell viability assays for H. influenza and P. gingivalis: Haemophilus influenzae Rd [KW20] was obtained from ATCC (51907). Standard growth and culturing techniques were followed as described previously^92. Cultures were grown in Brain Heart Infusion broth (BHI) supplemented with 7.5 μM of hemin and 2 μg/ml NAD with or without the addition of peptide for 24 hours. The number of viable cells for every reaction mixture was then determined by serially diluting and spotting 10-μl aliquots in triplicates on BHI agar plates supplemented with 15 μM hemin and 3 μM NAD. Porphyromonas gingivalis 2561 was obtained from ATCC (33277). Pre-reduced, anaerobically sterilized Brucella Broth and BRU—Brucella Blood Agar—were purchased from Anaerobe systems (CA, USA). They were opened just before use. Static cultures and plates were incubated at 37° C. in an incubation chamber from BD GasPak™ EZ Container Systems. Anaerobic conditions were maintained by using BD BBL CO2 gas generators and BD BB GasPak™ CO2 indicators. Cultures were grown anaerobically in Brucella Broth with or without addition of peptides for 48 hours and viable cells for every reaction mixture were then determined by serially diluting and spotting 10-μ1 aliquots in triplicates on Brucella Blood Agar."}, "Cytochrome c": {"tested_on": "Cytochrome c", "test": "UV-Vis test of heme sequestration from Cytochrome c", "format": "binding", "conditions": "excess NCR247", "description": "FIG. 13. […] The absorption spectrum of Cytochrome c remains unaltered even after addition of excess NCR247.\nUV-VIS spectroscopy: All absorption spectra were collected in a Tecan Spark™ 10 M microplate reader using black polystyrene 96-well plates. Absorbance from 300 nm to 700 nm was recorded with a 5 nm interval after an initial shaking at 100 rpm for 15 secs. Heme binding to synthesized peptide: Water (pH 7.4) was used in all reactions and was first added to the wells. Peptides solubilized in water were added and then heme solubilized in 0.1 M NaOH was added, mixed thoroughly and measurements were taken immediately. Peptide and heme volume were kept to a maximum of 5 ul in volume. For all the absorption curves (except Extended FIG. 3a) […] was used. The same was also repeated with 0.1 M Tris buffer (pH 7.4) as a base buffer instead of water."}, "Sinorhizobium meliloti [2]": {"tested_on": "Sinorhizobium meliloti", "test": "S. meliloti growth curve", "format": "cell-based", "conditions": "increasing amounts of peptide; minimal medium", "description": "Growth curve: All growth curve experiments were performed in a Tecan SPARK 10M microplate reader using polystyrene flat bottomed, non-treated, sterile 96 well plates. Overnight cultures grown in LBMC were washed and were subcultured (1:100 dilution) in minimal medium supplemented with respective iron concentrations. The plates were programed to continuously shake at 150 rpm and temperature maintained at 30° C. Optical density was measured at 600 nm every 60 minutes."}, "Candida albicans": {"tested_on": "Candida albicans", "test": "C. albicans biofilm formation", "format": "cell-based"}, "Toxoplasma gondii": {"tested_on": "Toxoplasma gondii", "test": "T. gondii plaque assay on human foreskin fibroblasts", "format": "cell-based", "conditions": "6 hr. pre-treatment of parasites", "description": "Parasite and host cell culture: T. gondii parasites (strain RH, ATCC 50838) were grown in human foreskin fibroblasts (HFFs) maintained in DMEM (GIBCO) supplemented with 3% inactivated fetal calf serum (IFS) and 10 μg/mL gentamicin (Thermo Fisher Scientific), referred to as D3. Where noted, DMEM supplemented with 10% IFS and 10 μg/mL gentamicin was used, referred to as D10.\nPlaque Assays: Freshly lysed parasites were filtered through 5 μm filters and spun down at 1000×g and 18° C. for 10 min. Parasites were resuspended to 6E6 parasites/mL in Fluorobrite™ media supplemented with 3% IFS. Parasites were incubated with either peptide or vehicle for 6 hours at 37° C. and 5% CO2. Parasites were then spun down, washed once in 2 mL of Fluorobrite™ supplemented with 3% IFS, and resuspended in 1 mL of media. 2000 parasites were inoculated into each well of 6-well plates of HFFs maintained in D10 and allowed to grow undisturbed for 9 days. Plates were washed with PBS and fixed for 10 min at room temperature with 100% ethanol. Monolayers were visualized by staining for 5 min at room temperature with crystal violet solution, followed by two washes with PBS, one wash with water, and drying overnight."}, "HEK-293": {"tested_on": "HEK-293", "test": "Cytotoxic activity assay (MTT)", "format": "cell-based, Human", "conditions": "100 μM, 24 h, listed as L-NCR247", "description": "Cytotoxic activity assay: Human embryonic kidney (HEK-293-ATCC-CRL-1573) cell lines were cultured in Dulbecco's Modified Eagle Medium (DMEM) supplemented with 10% Fetal Bovine Serum (FBS). When cells reached 10^4-10^5 cells per well, cells were supplemented with fresh DMEM without FBS, and then treated with 100 μM of NCR247 (L and D). After treatment for 24 h, MTT (Abeam, United Kingdom) stock solution was added to each well at a final concentration of 500 μg/mL and incubated in the dark for 4 h at 37° C. The absorbance at 570 nm was measured in the Tecan plate reader."}}, "note": "“Also recorded” adds a separate entry of the source."}
{"sequence": "RNGCIVDPRCPYQQCRRPLYCRRR [NCR247]", "values": [{"measurement": "Cell death in 24 hours", "setting": "Sinorhizobium meliloti [1]; 6 uM peptide", "value": "10000 fold decrease in fold decrease in cell number"}, {"measurement": "reduction in number of S. meliloti cells (bactericidal effect)", "setting": "Sinorhizobium meliloti [1]; incubated 24 hours, plated in non-selective medium", "value": "causes a reduction in the number of S. meliloti cells"}, {"measurement": "growth / viable cell number of P. gingivalis", "setting": "Porphyromonas gingivalis", "value": "can prevent the growth"}, {"measurement": "growth / viable cell number of P. gingivalis", "setting": "Porphyromonas gingivalis; listed as L-NCR247", "value": "Reduction of viable cell number"}, {"measurement": "sequestration of heme from Cytochrome c", "setting": "Cytochrome c", "value": "cannot sequester cytochrome heme; also recorded: inability of NCR247 to sequester heme from Cytochrome c"}, {"measurement": "inhibition of growth of S. meliloti (bacteriostatic effect)", "setting": "Sinorhizobium meliloti [2]", "value": "reduction in growth rate; also recorded: inhibits the growth of Sinorhizobium meliloti"}, {"measurement": "C. albicans biofilm formation", "setting": "Candida albicans", "value": "interferes with the ability of the opportunistic fungal pathogen Candida albicans to form biofilms; also recorded: can inhibit Candida albicans biofilms"}, {"measurement": "capacity of T. gondii to form plaques", "setting": "Toxoplasma gondii", "value": "massive reduction in the capacity of the parasite to form plaques"}, {"measurement": "cytotoxicity", "setting": "HEK-293", "value": "negligible cytotoxicity; also recorded: negligible hemolysis"}]}
